Experimental findings from ChEMBL document CHEMBL4364295, “Discovery of a First-in-Class Receptor Interacting Protein 2 (RIP2) Kinase Specific Clinical Candidate, 2-((4-(Benzo[d]thiazol-5-ylamino)-6-(tert-butylsulfonyl)quinazolin-7-yl)oxy)ethyl Dihydrogen Phosphate, for the Treatment of Inflammatory Diseases” (J Med Chem, 2019) are described below.

By IC50 is commonly meant the concentration that gives 50% inhibition. One may read the AUC as the area under the concentration-time curve, a measure of exposure. By fraction unbound is commonly meant free concentration divided by total concentration. In general, Cmax refers to the maximum level reached in the sampled fluid or tissue.

Bounds are passed on as bounds.

One data set has as its target Toll-like receptor 4 (Homo sapiens, UniProt O00206). Put plainly: Inhibition of TLR4 in human monocytes assessed as reduction in LPS-induced TNFalpha production. The format is cell-based.
Data set [1] concerns the target Receptor-interacting serine/threonine-protein kinase 2 (Homo sapiens, UniProt O43353). Kind of data set: Inhibition of RIPK2 in human whole blood assessed as reduction in MDP-induced TNFalpha production preincubated for 30 mins followed by MDP-stimulation and measured after 6 hrs by immunoassay. Format: tissue-based.
Data set [2] can be described thus: AUC in Gottingen minipig at 1 mg/kg, po by LC/MS/MS analysis. The format is ADME, organism-based, Sus scrofa. The conditions noted are these: pig, in vivo.
Data set [3] in a line: Unbound fraction in rat blood. The format is ADME, tissue-based.
Data set [4] is described as follows: AUC in Sprague-Dawley rat at 60 mg/kg, po using crystalline sample during 7 day dose ranging study by LC/MS/MS analysis. Format: ADME, organism-based. The following applies: in vivo.
The nature of data set [5]: Clearance in Sprague-Dawley rat at 2 mg/kg, po or 0.5 mg/kg, iv by LC/MS/MS analysis. The format is ADME, organism-based. The conditions noted are these: in vivo.
Data set [6] can be described thus: Cmax in Beagle dog at 2 mg/kg, po by LC/MS/MS analysis. The conditions noted are these: in vivo. The format is ADME, organism-based, Canis lupus familiaris. Details: dose 2 mg/kg, route oral.
Data set [7] is described as follows: Cmax in Sprague-Dawley rat at 60 mg/kg, po using crystalline sample during 7 day dose ranging study by LC/MS/MS analysis. The arrangement: dose 60 mg/kg, route oral. Format: ADME, organism-based. The following applies: in vivo.
A short description of data set [8]: Prodrug conversion in minipig hepatocytes assessed as benzothiazole ring opening at 20 uM measured after 4 hrs. The following applies: pig. The format is ADME, cell-based, Sus scrofa, Hepatocyte.
The nature of data set [9]: Oral bioavailability in Sprague-Dawley rat assessed as 2-((4-(Benzo[d]thiazol-5-ylamino)-6-(tert-butylsulfonyl)quinazolin-7-yl)oxy)ethanol level at 2 mg/kg by LC/MS/MS analysis. The following applies: in vivo. The format is ADME, organism-based.
The nature of data set [10]: Prodrug conversion in minipig hepatocytes assessed as 2-(4-(benzo[d]thiazol-5-ylamino)-6-(tert-butylsulfonyl)quinazolin-7-yloxy)acetic acid formation at 20 uM measured after 4 hrs. The format is ADME, cell-based, Sus scrofa, Hepatocyte. The conditions noted are these: pig.
A short description of data set [11]: Ratio of brain to blood concentration in Han Wistar rat assessed as 2-((4-(Benzo[d]thiazol-5-ylamino)-6-(tert-butylsulfonyl)quinazolin-7-yl)oxy)ethanol level at 2 mg/kg, iv administered as infusion for 4 hrs. The format is ADME, organism-based.
A short description of data set [12]: Oral bioavailability in Beagle dog assessed as 2-((4-(Benzo[d]thiazol-5-ylamino)-6-(tert-butylsulfonyl)quinazolin-7-yl)oxy)ethanol level at 2 mg/kg by LC/MS/MS analysis. The format is ADME, organism-based, Canis lupus familiaris. The conditions noted are these: in vivo.
The nature of data set [13]: Prodrug conversion in rat hepatocytes assessed as oxidation at 20 uM measured after 4 hrs. The format is ADME, cell-based, Hepatocyte.
Data set [14] in a line: Prodrug conversion in rat hepatocytes assessed as 2-((4-(Benzo[d]thiazol-5-ylamino)-6-(tert-butylsulfonyl)quinazolin-7-yl)oxy)ethanol formation at 20 uM measured after 4 hrs. The format is ADME, cell-based, Hepatocyte.

Sequence of Toll-like receptor 4 (O00206 whole entry): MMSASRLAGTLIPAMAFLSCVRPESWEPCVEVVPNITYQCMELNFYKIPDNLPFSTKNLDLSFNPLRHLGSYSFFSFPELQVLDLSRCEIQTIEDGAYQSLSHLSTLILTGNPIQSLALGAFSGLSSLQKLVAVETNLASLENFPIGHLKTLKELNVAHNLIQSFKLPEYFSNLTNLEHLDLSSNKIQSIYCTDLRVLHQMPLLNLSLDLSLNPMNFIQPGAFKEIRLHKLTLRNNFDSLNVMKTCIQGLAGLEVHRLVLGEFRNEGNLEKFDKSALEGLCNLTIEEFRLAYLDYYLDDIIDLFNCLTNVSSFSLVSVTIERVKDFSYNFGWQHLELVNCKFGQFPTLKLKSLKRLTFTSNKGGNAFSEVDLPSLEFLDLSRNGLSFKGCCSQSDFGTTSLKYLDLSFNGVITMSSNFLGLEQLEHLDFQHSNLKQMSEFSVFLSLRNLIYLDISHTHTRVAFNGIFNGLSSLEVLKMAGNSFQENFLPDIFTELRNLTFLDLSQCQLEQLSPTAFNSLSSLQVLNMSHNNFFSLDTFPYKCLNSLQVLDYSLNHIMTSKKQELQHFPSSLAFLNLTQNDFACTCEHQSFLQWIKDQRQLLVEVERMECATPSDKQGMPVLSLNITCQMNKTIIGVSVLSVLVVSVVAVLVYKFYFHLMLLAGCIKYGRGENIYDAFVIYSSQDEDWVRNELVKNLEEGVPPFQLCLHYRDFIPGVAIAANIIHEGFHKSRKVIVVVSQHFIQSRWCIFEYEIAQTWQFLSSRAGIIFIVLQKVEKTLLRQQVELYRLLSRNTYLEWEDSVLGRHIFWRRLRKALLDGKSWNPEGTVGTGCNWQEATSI
Sequence of Receptor-interacting serine/threonine-protein kinase 2 (O43353 whole entry): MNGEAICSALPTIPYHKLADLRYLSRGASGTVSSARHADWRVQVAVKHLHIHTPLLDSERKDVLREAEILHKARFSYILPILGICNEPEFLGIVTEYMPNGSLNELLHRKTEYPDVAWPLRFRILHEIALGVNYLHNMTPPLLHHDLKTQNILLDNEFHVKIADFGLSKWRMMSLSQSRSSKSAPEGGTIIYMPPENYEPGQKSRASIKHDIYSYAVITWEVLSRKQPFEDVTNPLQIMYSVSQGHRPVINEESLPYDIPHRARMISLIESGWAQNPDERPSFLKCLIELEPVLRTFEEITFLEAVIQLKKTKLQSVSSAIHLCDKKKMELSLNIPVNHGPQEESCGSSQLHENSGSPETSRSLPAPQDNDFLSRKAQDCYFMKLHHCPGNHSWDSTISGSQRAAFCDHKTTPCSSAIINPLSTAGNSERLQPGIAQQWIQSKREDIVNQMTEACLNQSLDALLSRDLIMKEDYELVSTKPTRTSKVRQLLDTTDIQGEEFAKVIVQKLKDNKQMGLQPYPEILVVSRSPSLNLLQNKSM

Turning to `CC(C)(C)S(=O)(=O)c1cc2c(Nc3ccc4scnc4c3)ncnc2cc1OCCO`, the IC50 is above 10000 nM at Toll-like receptor 4 and 26 nM in data set [1]. Further, the AUC in data set [2] was 85 ng·h/mL. Besides, the fraction unbound in data set [3] came to 0.11. In [4], the AUC at 168 h came out at 23400 ng·h/mL. Besides, in data set [5], the clearance is 27 mL/min/kg. The peak concentration (Cmax) was 470 ng/mL in data set [6] and 2100 ng/mL in data set [7].

Turning to `CC(C)(C)S(=O)(=O)c1cc2c(Nc3ccc4scnc4c3)ncnc2cc1OCCOP(=O)(O)O.[CaH2]`, the Drug metabolism entry in [8], in data set [10], in data set [13] and in data set [14] was “Metabolite_Detected” in each case. The F is recorded as 77% in data set [9] and 100% in data set [12]. For the same compound, in data set [11], the Ratio was 0.065.
